Data published in patent US9840465B2 (priority 2013, dated 2017).
Counter-ions that a name gives are not always drawn. Like-named read-outs stand apart in the source and are kept apart here.

Key:
[1] = test system: A2/Taiwan/1/64 (H2N2), M2 WT; experiment: microbe, parasite or virus in culture; format: cell-based; details: read-out: EC50 A2/Taiwan/1/64 (H2N2)
[2] = test system: A/Victoria/3/75 (H3N2), M2 WT; experiment: microbe, parasite or virus in culture; format: cell-based; details: read-out: EC50 A/Victoria/3/75 (H3N2)

Row | Structure (SMILES) | EC50 ([1]; Influenza A virus, H2N2, MDCK) | EC50 ([2]; Influenza A virus, H3N2, MDCK) | EC50 [1] | EC50 [2] | other results
1 | CCCC1(N)C2CC3CC(C2)CC1C3 (stereo not drawn) [Compound 7] | < 240 nM | 23000 nM |  |  | 
2 | CCC1CCC2(N1)C1CC3CC(C1)CC2C3 (stereo not drawn) (as salt: fumarate) [Compound 347, 5-ethylspiro[pyrrolidine-2,2′-tricyclo[3.3.1.1^3,7]decane]] |  |  |  |  | melting point: 191 to 193 °C (dec.)
3 | CC(C)CC1(N)C2CC3CC(C2)CC1C3 (stereo not drawn) [Compound 18, (1r,3r,5r,7r)-2-isobutyladamantan-2-amine] |  |  | 400 nM | 13000 nM | 
4 | NC1(c2ccccc2)C2CC3CC(C2)CC1C3 (stereo not drawn) [Compound 19, (1r,3r,5r,7r)-2-phenyladamantan-2-amine] |  |  | 200 nM | 8000 nM | 
5 | CCCCCCC1(N)C2CC3CC(C2)CC1C3 (stereo not drawn) [Compound 101, 2-n-hexyl-tricyclo[3.3.1.1^3,7]decan-2-amine] | 1500 nM | 1100 nM |  |  | microscopic evidence of cytotoxicity to MDCK cells (MDCK cells): No microscopic evidence of cytotoxicity
6 | NC1(Cc2ccccc2)C2CC3CC(C2)CC1C3 (stereo not drawn) [Compound 20, (1r,3r,5r,7r)-2-benzyladamantan-2-amine] |  |  | 200 nM | 18000 nM | 
7 | CC(N)C12CC3CC(CC(C3)C1)C2 (stereo not drawn) [Rimantadine (2), Rimantadine, reference compound] | 1600 nM | 530 nM |  |  | 
8 | NC12CC3CC(CC(C3)C1)C2 [Amantadine (1), Amantadine, reference compound] | 340 nM | 2800 nM |  |  | 
9 | CCCCC1(N)C2CC3CC(C2)CC1C3 (stereo not drawn) [Compound 17, (1r,3r,5r,7r)-2-butyladamantan-2-amine] |  |  | 1500 nM | 4000 nM | 
10 | CC(C)(N)C12CC3CC(CC(C3)C1)C2 [Compound 259, 2-(adamantan-1-yl)propan-2-amine] | 1100 nM | 3400 nM |  |  | 
11 | CCCCCCC1(N)C2CC3CC(C2)CC1C3 (stereo not drawn) (as salt: fumarate) [Compound 101, 2-n-hexyl-tricyclo[3.3.1.1^3,7]decan-2-amine] |  |  |  |  | melting point: 225 °C
